# According to patent publication US20260083865A1, “PROSTATE SPECIFIC MEMBRANE ANTIGEN (PSMA) LIGANDS AND USE THEREOF” (priority 2022, published 2026):
# Like-named read-outs stand apart in the source and are kept apart here. Numbered stars: 1 amine (or outer) side, 2 acyl side, 3 side chain; on linkers, the order of the positions; unused ones are H or OH. Bridge positions count the residues as written; N and C are the ends. Square brackets hold non-standard residues; d marks the D form. Side chains are listed from the residue outwards. Peptide text beside a SMILES is read from it. * marks the point of attachment. TtdsdLys(DOTA)NH2 = NC(=O)[C@@H](CCCCNC(=O)CN1CCN(CC(=O)O)CCN(CC(=O)O)CCN(CC(=O)O)CC1)NC(=O)CCC(=O)NCCCOCCOCCOCCCN*; X3 = O=C(O)CN1CCN(CC(=O)O)CCN(CC(=O)NCCCOCCOCCOCCCN*)CCN(CC(=O)O)CC1; DOTA = O=C(O)CN1CCN(CC(=O)O)CCN(CC(=O)*)CCN(CC(=O)O)CC1; Phe(4-Cl) = N[C@@H](Cc1ccc(Cl)cc1)C(=O)O; Propanoyl(3-SO2NH2) = NS(=O)(=O)CCC(=O)*; 3Pal = N[C@@H](Cc1cccnc1)C(=O)O; X1 = O=C(CC1CCN([*:1])CC1)[*:2]; Cit = NC(=O)NCCC[C@H](N)C(=O)O; Thr(ol) = C[C@@H](O)[C@H](N)CO; d(αMeS) = C[C@@](N)(CO)C(=O)O; Suc = O=C(CCC(=O)[*:2])[*:1]; Tle = CC(C)(C)[C@H](N)C(=O)O; Hexanoyl = CCCCCC(=O)*; Aib = CC(C)(N)C(=O)O; Ahx = NCCCCCC(=O)O; βAla = NCCC(=O)O
# Assays:
# [1] = target: T1, PSMA-expressing C4-2 cells (Homo sapiens, UniProt Q04609); experiment: FACS binding assay (competition with 50 nM PSM-0183); conditions: read-out: pIC50 [C4-2] CAT (converted)
# T1 construct: PSMA-expressing C4-2 cells (ATCC, Cat. No. CRL-3314) were cultured in RPMI-1640; host or cells: C4-2 cells
# T1 sequence (Q04609 whole entry): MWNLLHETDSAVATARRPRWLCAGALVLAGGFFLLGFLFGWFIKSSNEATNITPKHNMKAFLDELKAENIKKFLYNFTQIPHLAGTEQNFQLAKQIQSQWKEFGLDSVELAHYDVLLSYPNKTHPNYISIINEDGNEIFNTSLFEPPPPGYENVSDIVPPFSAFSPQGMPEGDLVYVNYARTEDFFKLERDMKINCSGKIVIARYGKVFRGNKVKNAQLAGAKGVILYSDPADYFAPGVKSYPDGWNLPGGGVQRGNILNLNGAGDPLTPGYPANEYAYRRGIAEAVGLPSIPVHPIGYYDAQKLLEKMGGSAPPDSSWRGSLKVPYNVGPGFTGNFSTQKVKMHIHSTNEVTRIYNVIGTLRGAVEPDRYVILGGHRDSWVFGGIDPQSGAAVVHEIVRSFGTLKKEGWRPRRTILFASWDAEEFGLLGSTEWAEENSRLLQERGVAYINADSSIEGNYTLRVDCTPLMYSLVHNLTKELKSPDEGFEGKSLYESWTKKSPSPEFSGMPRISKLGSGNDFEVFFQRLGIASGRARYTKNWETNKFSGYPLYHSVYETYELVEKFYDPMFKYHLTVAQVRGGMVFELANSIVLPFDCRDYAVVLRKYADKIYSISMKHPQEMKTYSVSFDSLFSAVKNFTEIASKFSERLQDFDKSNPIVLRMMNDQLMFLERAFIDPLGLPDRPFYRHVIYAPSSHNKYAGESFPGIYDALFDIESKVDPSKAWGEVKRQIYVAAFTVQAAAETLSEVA
# Method in brief: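 Competition format: fluorescent tracer PSM-0183 (50 nM) displaced from PSMA on C4-2 cells by a test compound titration over 1 h at 4 °C. Bound tracer was quantified as flow-cytometric AF488 median fluorescence after washing. Four-parameter logistic fits of MFI data gave IC50 and pIC50.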
# [2] = target: T2, Fc-fusion protein of human PSMA (hPSMA-Fc) (Homo sapiens, UniProt Q04609); experiment: Surface plasmon resonance assay (Biacore T200, single cycle kinetic); assay type: binding; conditions: read-out: pKD CAT (converted)
# T2 construct: purchased Acro Biosystems PSA-H5264
# T2 sequence (Q04609 44-750 limits assumed): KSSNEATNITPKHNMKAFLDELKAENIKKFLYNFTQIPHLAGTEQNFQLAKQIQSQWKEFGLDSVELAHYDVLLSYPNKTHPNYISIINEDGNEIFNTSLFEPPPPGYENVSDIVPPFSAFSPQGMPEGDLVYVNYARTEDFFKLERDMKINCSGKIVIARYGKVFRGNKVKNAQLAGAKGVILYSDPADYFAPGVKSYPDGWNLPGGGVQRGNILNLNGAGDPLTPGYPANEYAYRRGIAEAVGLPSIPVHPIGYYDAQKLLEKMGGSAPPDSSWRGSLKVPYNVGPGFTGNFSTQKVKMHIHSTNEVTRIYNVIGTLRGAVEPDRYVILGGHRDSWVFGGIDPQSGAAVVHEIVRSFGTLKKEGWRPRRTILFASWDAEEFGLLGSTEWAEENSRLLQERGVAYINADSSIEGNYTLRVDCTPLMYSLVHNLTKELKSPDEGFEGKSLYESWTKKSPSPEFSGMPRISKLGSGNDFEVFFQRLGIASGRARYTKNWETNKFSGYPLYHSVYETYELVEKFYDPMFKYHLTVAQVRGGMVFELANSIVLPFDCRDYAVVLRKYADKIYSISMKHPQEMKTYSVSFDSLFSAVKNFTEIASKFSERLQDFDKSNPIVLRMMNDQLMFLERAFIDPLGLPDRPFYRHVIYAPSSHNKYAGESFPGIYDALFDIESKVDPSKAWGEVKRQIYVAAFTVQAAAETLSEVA
# Method in brief: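 KD, expressed as pKD, came from 1:1 Langmuir fits of reference- and buffer-blank-subtracted SPR data. The runs were single-cycle kinetics at 25° C in HBST/0.1% DMSO over human PSMA-Fc, captured to ~1000 RU on a peptide-coated CM5 surface and regenerated with 10 mM glycine pH 1.5.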
# [3] = pIC50 category of FACS binding, C4-2 cells
# [4] = pKD category for PSMA SPR activity assay, hPSMA-Fc, 25° C.
# [5] = FACS binding, C4-2 cells, competition with 50 nM PSM-0183, category
# [6] = SPR, hPSMA-Fc, single cycle kinetic, 25° C., category
# [7] = FACS binding, PSMA-expressing C4-2 cells, pIC50 category
# [8] = PSMA SPR assay, hPSMA-Fc, 25° C., pKD category
# [9] = FACS binding, C4-2 cells, category
compound,measurement,setting,value
"CCCCCC(=O)N[C@H](C(=O)NC(C)(C)C(=O)N[C@@H](Cc1ccccc1)C(=O)N[C@H]1CSSC[C@@H](C(=O)N[C@H](C(=O)N[C@H](C(=O)NCCCOCCOCCOCCCNC(=O)CCC(=O)N[C@H](CCCCNC(=O)CN2CCN(CC(=O)O)CCN(CC(=O)O)CCN(CC(=O)O)CC2)C(N)=O)[C@@H](C)O)C(C)(C)C)NC(=O)[C@H](CC(N)=O)NC(=O)[C@H](C)NC(=O)[C@H](CCCNC(=N)N)NC(=O)[C@H](CCCCN)NC1=O)[C@@H](C)O [PSM-0462, Hex-Thr-Aib-Phe-[Cys-Lys-Arg-Ala-Asn-Cys]-Tle-Thr-Ttds-lys(DOTA)-NH2] (Hexanoyl-T[Aib]FCKRANC[Tle]T-{TtdsdLys(DOTA)NH2}; disulfide 4-9)",IC50,[1]; [3],< 200 nM
same,Kd,[2]; [4],< 12.6 nM
"CC(=O)N[C@H](C(=O)NC(C)(C)C(=O)N[C@@H](Cc1ccc(Cl)cc1)C(=O)N[C@H]1CSSC[C@@H](C(=O)N[C@H](C(=O)N[C@H](C(N)=O)[C@@H](C)O)C(C)(C)C)NC(=O)[C@H](CC(N)=O)NC(=O)C(C)(C)NC(=O)[C@H](CCCNC(N)=O)NC(=O)[C@H](CCCCN)NC1=O)[C@@H](C)O [PSM-0179, Ac-Thr-Aib-Pcf-[Cys-Lys-Cit-Aib-Asn-Cys]-Tle-Thr-NH2] (Ac-T[Aib][Phe(4-Cl)]CK[Cit][Aib]NC[Tle]T-NH2; disulfide 4-9)",IC50,[1]; [5],< 200 nM
same,Kd,[2]; [6],< 12.6 nM
"CC(=O)N[C@H](C(=O)NC(C)(C)C(=O)N[C@@H](Cc1ccccc1)C(=O)N[C@@H]1CSSC[C@H](C(=O)N[C@H](C(=O)N[C@H](C(N)=O)[C@@H](C)O)C(C)(C)C)NC(=O)[C@H](CC(N)=O)NC(=O)C(C)(C)NC(=O)[C@H](CCCNC(=N)N)NC(=O)[C@H](CCCCN)NC1=O)[C@@H](C)O [PSM-0327, Ac-Thr-Aib-Phe-[cys-Lys-Arg-Aib-Asn-cys]-Tle-Thr-NH2] (Ac-T[Aib]F[dC]KR[Aib]N[dC][Tle]T-NH2; disulfide 4-9)",IC50,[1]; [7],> 3160 nM
same,Kd,[2]; [8],> 501 nM
"CC(=O)N[C@H](C(=O)NC(C)(C)C(=O)N[C@@H](Cc1ccc(Cl)cc1)C(=O)N[C@H]1CSSC[C@@H](C(=O)N[C@H](C(=O)N[C@H](CO)[C@@H](C)O)C(C)(C)C)NC(=O)[C@H](CC(N)=O)NC(=O)C(C)(C)NC(=O)[C@H](CCCNC(=N)N)NC(=O)[C@H](CCCCN)NC1=O)[C@@H](C)O [PSM-0554, Ac-Thr-Aib-Pcf-[Cys-Lys-Arg-Aib-Asn-Cys]-Tle-Throl-OH] (Ac-T[Aib][Phe(4-Cl)]CKR[Aib]NC[Tle][Thr(ol)]; disulfide 4-9)",IC50,[1]; [3],< 200 nM
same,Kd,[2]; [4],< 12.6 nM
"CC(=O)N[C@H](C(=O)NC(C)(C)C(=O)N[C@@H](Cc1ccc(Cl)cc1)C(=O)N[C@H]1CSSC[C@@H](C(=O)N[C@H](C(=O)N[C@H](C(N)=O)[C@@H](C)O)C(C)(C)C)NC(=O)[C@H](CO)NC(=O)C(C)(C)NC(=O)[C@H](CCCNC(N)=O)NC(=O)[C@H](CCCCN)NC1=O)[C@@H](C)O [PSM-0293, Ac-Thr-Aib-Pcf-[Cys-Lys-Cit-Aib-Ser-Cys]-Tle-Thr-NH2] (Ac-T[Aib][Phe(4-Cl)]CK[Cit][Aib]SC[Tle]T-NH2; disulfide 4-9)",IC50,[1]; [7],< 200 nM
same,Kd,[2]; [8],< 12.6 nM
"C[C@@H](O)[C@H](NC(=O)CCC(=O)NCCCOCCOCCOCCCNC(=O)CN1CCN(CC(=O)O)CCN(CC(=O)O)CCN(CC(=O)O)CC1)C(=O)NC(C)(C)C(=O)N[C@@H](Cc1ccccc1)C(=O)N[C@H]1CSSC[C@@H](C(=O)N[C@H](C(=O)N[C@H](C(=O)N[C@@H](CC(=O)O)C(N)=O)[C@@H](C)O)C(C)(C)C)NC(=O)[C@H](CC(N)=O)NC(=O)C(C)(C)NC(=O)[C@H](CCCNC(=N)N)NC(=O)[C@H](CCCCN)NC1=O [PSM-0398, DOTA-Ttds-Thr-Aib-Phe-[Cys-Lys-Arg-Aib-Asn-Cys]-Tle-Thr-Asp-NH2] ({X3-Suc}-T[Aib]FCKR[Aib]NC[Tle]TD-NH2; disulfide 4-9)",IC50,[1]; [3],< 200 nM
same,Kd,[2]; [4],< 12.6 nM
"C[C@@H](O)[C@H](NC(=O)[C@@H](NC(=O)[C@@H]1CSSC[C@H](NC(=O)[C@H](Cc2ccc(Cl)cc2)NC(=O)[C@@](C)(CO)NC(=O)[C@@H](NC(=O)CC2CCN(C(=O)CN3CCN(CC(=O)O)CCN(CC(=O)O)CCN(CC(=O)O)CC3)CC2)[C@@H](C)O)C(=O)N[C@@H](CCCCN)C(=O)N[C@@H](CCCNC(=N)N)C(=O)NC(C)(C)C(=O)N[C@@H](CC(N)=O)C(=O)N1)C(C)(C)C)C(N)=O [PSM-0256, DOTA-Cmp-Thr-ams-Pcf-[Cys-Lys-Arg-Aib-Asn-Cys]-Tle-Thr-NH2] ({DOTA}-[X1]T[d(αMeS)][Phe(4-Cl)]CKR[Aib]NC[Tle]T-NH2; disulfide 5-10)",IC50,[1]; [5],< 200 nM
same,Kd,[2]; [6],< 12.6 nM
"CC(=O)N[C@H](C(=O)NC(C)(C)C(=O)N[C@@H](Cc1ccccc1)C(=O)N[C@H]1CSSC[C@@H](C(=O)N[C@H](C(=O)N[C@H](C(=O)N[C@@H](CC(=O)O)C(N)=O)[C@@H](C)O)C(C)(C)C)NC(=O)[C@H](CC(N)=O)NC(=O)[C@H](C)NC(=O)[C@H](CCCNC(=N)N)NC(=O)[C@H](CCCCN)NC1=O)[C@@H](C)O [PSM-0565, Ac-Thr-Aib-Phe-[Cys-Lys-Arg-Ala-Asn-Cys]-Tle-Thr-Asp-NH2] (Ac-T[Aib]FCKRANC[Tle]TD-NH2; disulfide 4-9)",IC50,[1]; [9],< 200 nM
same,Kd,"[2]; PSMA SPR assay, category",< 12.6 nM
"C[C@@H](O)[C@H](NC(=O)[C@@H](NC(=O)[C@@H]1CSSC[C@H](NC(=O)[C@H](Cc2ccccc2)NC(=O)C(C)(C)NC(=O)CCNC(=O)CN2CCN(CC(=O)O)CCN(CC(=O)O)CCN(CC(=O)O)CC2)C(=O)N[C@@H](CCCCN)C(=O)N[C@@H](CCCNC(=N)N)C(=O)NC(C)(C)C(=O)N[C@@H](CC(N)=O)C(=O)N1)C(C)(C)C)C(N)=O [PSM-0437, DOTA-Bal-Aib-Phe-[Cys-Lys-Arg-Aib-Asn-Cys]-Tle-Thr-NH2] ({DOTA-βAla}-[Aib]FCKR[Aib]NC[Tle]T-NH2; disulfide 3-8)",IC50,[1]; [3],< 200 nM
same,Kd,[2]; [4],12.6 to 126 nM
"C[C@@H](O)[C@H](NC(=O)[C@@H](NC(=O)[C@@H]1CSSC[C@H](NC(=O)[C@H](Cc2cccnc2)NC(=O)C(C)(C)NC(=O)[C@@H](NC(=O)CC2CCN(C(=O)CN3CCN(CC(=O)O)CCN(CC(=O)O)CCN(CC(=O)O)CC3)CC2)[C@@H](C)O)C(=O)N[C@@H](CCCCN)C(=O)N[C@@H](CCCNC(N)=O)C(=O)NC(C)(C)C(=O)N[C@@H](CC(N)=O)C(=O)N1)C(C)(C)C)C(N)=O [PSM-0255, DOTA-Cmp-Thr-Aib-Mpa-[Cys-Lys-Cit-Aib-Asn-Cys]-Tle-Thr-NH2] ({DOTA}-[X1]T[Aib][3Pal]CK[Cit][Aib]NC[Tle]T-NH2; disulfide 5-10)",IC50,[1]; [5],1260 to 3160 nM
same,Kd,[2]; [6],> 501 nM
"CC(=O)N[C@H](C(=O)NC(C)(C)C(=O)N[C@@H](Cc1ccccc1)C(=O)N[C@H]1CSSC[C@@H](C(=O)N[C@H](C(=O)N[C@H](C(N)=O)[C@@H](C)O)C(C)(C)C)NC(=O)[C@H](CC(N)=O)NC(=O)[C@H](CCCCNC(=O)CCCCCNC(=O)CN2CCN(CC(=O)O)CCN(CC(=O)O)CCN(CC(=O)O)CC2)NC(=O)[C@H](CCCNC(N)=O)NC(=O)[C@H](CCCCN)NC1=O)[C@@H](C)O [PSM-0582, Ac-Thr-Aib-Phe-[Cys-Lys-Arg-Lys(DOTA-Ahx)-Asn-Cys]-Tle-Thr-NH2] (Ac-T[Aib]FCK[Cit]K([Ahx-DOTA])NC[Tle]T-NH2; disulfide 4-9)",IC50,[1]; [9],< 200 nM
same,Kd,"[2]; PSMA SPR assay, category",< 12.6 nM
"C[C@@H](O)[C@H](NC(=O)[C@@H](NC(=O)[C@@H]1CSSC[C@H](NC(=O)[C@H](Cc2ccc(Cl)cc2)NC(=O)C(C)(C)NC(=O)CCS(N)(=O)=O)C(=O)N[C@@H](CCCCN)C(=O)N[C@@H](CCCNC(=N)N)C(=O)NC(C)(C)C(=O)N[C@@H](CC(N)=O)C(=O)N1)C(C)(C)C)C(=O)N[C@H](CCCCNC(=O)CN1CCN(CC(=O)O)CCN(CC(=O)O)CCN(CC(=O)O)CC1)C(N)=O [PSM-0328, SaPr-Aib-Pcf-[Cys-Lys-Arg-Aib-Asn-Cys]-Tle-Thr-lys(DOTA)-NH2] ({Propanoyl(3-SO2NH2)}-[Aib][Phe(4-Cl)]CKR[Aib]NC[Tle]T[dK](DOTA)-NH2; disulfide 3-8)",IC50,[1]; [7],< 200 nM
same,Kd,[2]; [8],< 12.6 nM
"CC(=O)N[C@H]1CSSC[C@@H](C(=O)N[C@@H](CC(C)C)C(=O)N[C@H](C(=O)N[C@@H](CC(=O)O)C(=O)NCCCOCCOCCOCCCNC(=O)CCC(=O)N[C@H](CCCCNC(=O)CN2CCN(CC(=O)O)CCN(CC(=O)O)CCN(CC(=O)O)CC2)C(N)=O)[C@@H](C)O)NC(=O)[C@H](CC(N)=O)NC(=O)[C@H](C)NC(=O)[C@H](CCCNC(=N)N)NC(=O)[C@H](CCCCN)NC1=O [PSM-0591, Ac-[Cys-Lys-Arg-Ala-Asn-Cys]-Leu-Thr-Asp-Ttds-lys(DOTA)-NH2] (Ac-CKRANCLTD-{TtdsdLys(DOTA)NH2}; disulfide 1-6)",IC50,[1]; [9],> 3160 nM
same,Kd,"[2]; PSMA SPR assay, category",> 501 nM
